These results are taken from US20240075050A1, “Methods and Compositions for Treating Leucine Rich Repeat Kinase 2 (LRRK2)-Associated Disorder or Condition” (University of Connecticut, priority 2022, published 2024).

The structures appear in SMILES notation.

Holding throughout (type): cell-based, human
For assay [1], the system named is DCP1A. Put plainly: DCP1A expression levels in SH-SY5Y cells, Western blot. Particulars: 1 mM, 48 hours. Here is the method:
FIGS. 6A-6E depict that the decapping enzyme complex DCP1/2 is involved in LRRK2 mRNA decay. FIGS. 6A and 6B depict the DCP1A and DCP2 expression levels upon AICAr treatment. SH-SY5Y cells were treated with or without 1 mM AICAr for 48 hours. DCP1A and DCP2 expression levels were analyzed by Western blot. Images were quantified by ImageJ software. Data are mean±SEM, n=3 independent experiments. **p<0.01 by Student's t tests. FIGS. 6C and 6D depict the LRRK2 expression levels upon DCP1A or DCP2 overexpression. SH-SY5Y cells were transduced with lentiviruses carrying Flag-DCP1A or Flag-DCP2 for 48 hours. LRRK2 expression levels were analyzed by Western blot. Images were quantified by ImageJ software. Data are mean±SEM, n=3 independent experiments. *p<0.05 by Student's t tests. FIG. 6E depict LRRK2 mRNA decapping by DCP1A and DCP2. Recombinant DCP1A and DCP2 proteins were purified from HEK 293T cells and incubated with [α-32P]cap-labeled LRRK2 RNA. LRRK2 mRNA decapping was analyzed by one-dimensional thin layer chromatography.

Assay [2] relates to LRRK2 mRNA. Put plainly: LRRK2 mRNA stability assay in the presence of actinomycin D. Particulars: SH-SY5Y, 2 mM AICAr, 24-h period, 10 μg/ml actinomycin D. Here is the method: FIGS. 3A-3J depict that AICAr regulates LRRK2 at mRNA level and through a specific region. FIGS. 3A and 3B depict the LRRK2 protein levels upon treatment of AICAr together with a proteasome inhibitor MG132 or an autophagy inhibitor chloroquine (CQ). […] LRRK2 expression levels were analyzed by Western blot. Images were quantified by ImageJ software. Data are mean±SEM, n=3 independent experiments. ***p<0.001, ****p<0.0001 by one-way ANOVA followed by a Tukey's post hoc test. FIG. 3C depicts the LRRK2 and GBA mRNA levels upon AICAr treatment. SH-SY5Y cells were treated with or without 2 mM AICAr for 24 hours. Total RNA was extracted. LRRK2 and GBA mRNA levels were analyzed by real-time PCR. Data are mean±SEM, n=4 independent experiments. **p<0.01 by Student's t tests. ns: not statistically significant. […] LRRK2 mRNA levels were analyzed by real-time PCR. […] LRRK2 expression levels were analyzed by Western blot. Images were quantified by ImageJ software. […] LRRK2 deletion mutant expression levels were analyzed by Western blot. FIGS. 3I and 3J depict that the specific region (2221-3927 bp) of the synthesized Flag-LRRK2 cDNA was replaced with the native sequence and the response of this chimeric LRRK2 cDNA expression to AICAr treatment was analyzed by Western blot. Images were quantified by ImageJ software. […]

The subject of assay [3] is LRRK2 mRNA. The experiment in a line: LRRK2 mRNA levels by real-time PCR in SH-SY5Y cells. To be noted: 24 hours. Here is the method:
Real-Time PCR (qPCR). SH-SY5Y WT or AUF1-KO cells were treated with or without 2 mM AICAr for 24 hours, and total RNA was extracted from 3×10^5 cells of each treatment using TRIzol™ Reagent (Invitrogen) as per the manufacturer's introductions. Real-Time PCR (qPCR) assay was performed using GoTaq® 2-Step RT-PCR System (Promega) as per the manufacturer's introductions. Briefly, total cDNA was reversely transcribed from RNA pools (1.5 μg RNA in a 10 μl reaction mixture) using random primers. The qPCR reaction was run in CFX96 qPCR detection system (Bio-Rad) with 3 μl cDNA (1:20 dilution) in a 10 μl reaction mixture (Table 3), and set at 95° C. for 2 minutes followed by 40 amplification cycles of 95° C. for 15 seconds, 60° C. for 1 min with a melting curve, 95° C. for 15 seconds, 60° C. for 1 min, a ramp from 60° C. to 95° C. at an 1% rate, and 95° C. for 15 seconds. Melt curves were monitored to assess qPCR amplicons, and critical threshold (Ct) values were collected with an enclosed software. Relative gene expression was analyzed by normalization against Ct values of f-ACTIN (housekeeping gene) and then determined by comparison with expression levels of control sample using the relative expression index (2-ΔΔCt) method.

Take `NC(=O)c1ncn([C@@H]2O[C@H](CO)[C@@H](O)[C@H]2O)c1N` [AICAr, 5-aminoimidazole-4-carboxamide riboside]: the “endogenous levels of DCP1A” value in assay [1] is “significantly increased”. For the same compound, the “acceleration of LRRK2 mRNA decay” value in assay [2] is on record as “about twofold”. For the same compound, in assay [3] (SH-SY5Y AUF1-KO cells), the “LRRK2 mRNA level in AUF1-KO cells” value is given as “minimal effect”. Moreover, the “LRRK2 mRNA levels” value in assay [3] (SH-SY5Y WT, 2 mM, real-time PCR) is “significantly decreased”.
